Consider one compound from paper PMC4322223, “Biochemical and structural characterization of a thermostable β-glucosidase from Halothermothrix orenii for galacto-oligosaccharide synthesis” (Applied Microbiology and Biotechnology, 2014).

The target of this test is T1, HoBGLA (Halothermothrix orenii, UniProt B8CYA8).
T1 construct: gene Hore_15280; full length, 451 residues, GH1; pNIC28-Bsa4 N-terminal His6-TEV tag cut off with TEV protease; expressed in E. coli BL21(DE3); 53 kDa
In words: X-ray crystal structure, […] Å, crystal soaked with cellobionolactam. The conditions noted are these: pH 5.5; subsite −1, non-covalent, glucose left after cleavage of cellobionolactam. The test is classed as binding.

T1 sequence (B8CYA8 entry or part of it): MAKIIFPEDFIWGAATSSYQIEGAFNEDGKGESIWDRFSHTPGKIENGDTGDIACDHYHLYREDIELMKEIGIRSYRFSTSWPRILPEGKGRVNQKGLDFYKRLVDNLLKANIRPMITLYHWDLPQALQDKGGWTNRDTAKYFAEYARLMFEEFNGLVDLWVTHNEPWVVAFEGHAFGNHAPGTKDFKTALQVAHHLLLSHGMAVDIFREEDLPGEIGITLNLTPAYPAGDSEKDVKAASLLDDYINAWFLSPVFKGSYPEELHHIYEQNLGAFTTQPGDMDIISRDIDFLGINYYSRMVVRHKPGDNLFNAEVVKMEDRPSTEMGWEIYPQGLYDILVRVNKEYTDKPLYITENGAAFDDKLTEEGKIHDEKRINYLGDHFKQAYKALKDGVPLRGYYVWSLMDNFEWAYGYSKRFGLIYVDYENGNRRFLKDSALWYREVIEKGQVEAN

In the case of `OC[C@H]1O[C@@H](O)[C@H](O)[C@@H](O)[C@@H]1O` [D-glucose], the “X-ray crystal structure, 1.80 Å, crystal soaked with cellobionolactam” value is recorded as “The crystal structure of HoBGLA in complex with glucose, representing the post-hydrolysis state”.
